The assay relates to biofilms. Description: Biofilm formation on HAP discs pre-treated with a simple solution of lysine. In kind it is cell-based. Conditions: after 48 h, visual. The source says: We pre-treated HAP discs with a simple solution of lysine to see how an overabundance of free lysine would affect biofilm formation.

These results are taken from US10130571B2, “Dentifrice Comprising Zinc-Amino Acid Complex and Phosphates” (Colgate-Palmolive Company, priority 2014, dated 2018).

Each structure is given as a SMILES string.

`NCCCC[C@H](N)C(=O)O` [lysine]: the “appearance of biofilms after lysine pre-treatment” value is listed as “visually were overgrown”.
